Measured values: PMC7534389, “Thiazolidin-2-cyanamides derivatives as novel potent Escherichia coli β-glucuronidase inhibitors and their structure–inhibitory activity relationships” (Journal of Enzyme Inhibition and Medicinal Chemistry, 2020)
Several values for one entry are separate records, joined by “and”; a condition that tells them apart may be missing. Equal entries are not always repeated. Where two headings read alike, the source gives them in different places.

How the values were obtained:
[1] = target: T1, Escherichia coli β-glucuronidase (EcGUS) (Escherichia coli, UniProt P05804); experiment: EcGUS-mediated PNPG hydrolysis inhibition assay (screening at 10 µM and IC50); format: biochemical
T1 construct: inferred from the pET28a vector and Ni-NTA purification; made in house; host or cells: E. coli BL21 (DE3)
T1 sequence (P05804 whole entry): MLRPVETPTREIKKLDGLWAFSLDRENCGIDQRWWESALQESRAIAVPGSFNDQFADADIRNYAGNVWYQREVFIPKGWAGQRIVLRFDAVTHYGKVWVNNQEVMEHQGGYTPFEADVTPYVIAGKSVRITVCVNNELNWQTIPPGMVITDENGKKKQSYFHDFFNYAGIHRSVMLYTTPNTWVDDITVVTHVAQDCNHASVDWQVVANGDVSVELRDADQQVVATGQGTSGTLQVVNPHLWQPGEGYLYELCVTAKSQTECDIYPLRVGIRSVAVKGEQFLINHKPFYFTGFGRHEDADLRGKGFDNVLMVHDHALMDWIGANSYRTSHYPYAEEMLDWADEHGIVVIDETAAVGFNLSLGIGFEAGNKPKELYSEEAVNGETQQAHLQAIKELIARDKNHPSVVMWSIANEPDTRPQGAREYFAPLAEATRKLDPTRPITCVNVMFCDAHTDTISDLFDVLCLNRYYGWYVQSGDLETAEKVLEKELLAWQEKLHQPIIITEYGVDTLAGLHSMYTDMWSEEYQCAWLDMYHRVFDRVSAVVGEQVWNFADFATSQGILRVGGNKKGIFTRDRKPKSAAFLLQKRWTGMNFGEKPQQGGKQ
Protocol: EcGUS was prepared according to our previous report. The recombinant strain were incubated in 200 mL of LB broth (Tryptone, 10 g/L; yeast extract, 5 g/L; NaCl, 10 g/L; pH 7.0) containing 1% kanamycin at 220 rpm and 37 °C until OD600 reached 0.5–0.6. Afterward, IPTG (final concentration, 0.5 mM) was added and the culture was incubated at 220 rpm and 16 °C for 16 h to induce the expression of β-glucuronidase. The cells were collected by centrifugation and suspended in PBS buffer (pH 7.4), and then applied to extract the enzyme by sonication. Finally, pure EcGUS was obtained from the cell-free extracts through a Ni-NTA column (EMD Millipore Corp., MA, USA). Protein concentration was determined using the BCA Protein Assay Kit (Beyotime, Shanghai, China) according to the manufacturer’s instruction, and its purity was determined by SDS-PAGE.
Thirteen thiazolidin-2-cyanamide derivatives were subjected to screening for potent EcGUS inhibitor. The inhibitory effects of these compounds were determined by measuring the PNP formation generated from PNPG by EcGUS. Briefly, the assays were conducted in 96-well flat-bottomed tissue culture plates (Nunc, Denmark) with a total volume of 100 µL which consisted of 10 µL EcGUS (final concentration, 2 µg/mL), 70 µL PBS buffer (pH 7.4), 10 µL test compound or DSL (final concentration, 10 µM) and 10 µL PNPG (final concentration, 250 µM). DSL was used as a positive control, and 1%DMSO was used as blank control. All reactions were performed in triplicate and the produced PNP was monitored by measuring absorbance at 405 nm in a plate reader (SpectraMax Plus384, Molecular Devices, CA, USA) after incubating at 37 °C for 30 min. The PNP concentration was determined from a standard curve (0, 10, 20, 40, 60, 80, 100, 120 µM PNP) in PBS buffer (pH 7.4). Relative activity was defined as a percent of PNP formation in the presence of test compound within 30 min compared with the blank control group.
IC50 values of the 13 thiazolidin-2-cyanamide derivatives against EcGUS were investigated using similar assays as described in Section 2.4. The reaction conditions are as follows: 10 µL pure enzyme (final concentration, 2 µg/mL), 70 µL PBS buffer (pH 7.4), 10 µL test compound or DSL (final concentration, 0.001–5000 µM) and 10 µL PNPG (final concentration, 250 µM) incubating at 37 °C for 30 min. The IC50 values were calculated by plotting the concentration–response curve using GraphPad Prism 6.0 (GraphPad Software, La Jolla, CA).
(§1) All experiments were carried out in triplicate and repeated at least two times. All data were expressed as mean ± standard deviation (SD). The IC50 values were defined as the concentration of inhibitor that is required for 50% inhibition and evaluated by nonlinear regression using GraphPad Prism 6.0 software (GraphPad Software, La Jolla, CA).

[2] = target: T1, Escherichia coli β-glucuronidase (EcGUS); experiment: Inhibition kinetic analysis (Lineweaver–Burk plots, Ki) against EcGUS; format: biochemical; details: for Ki: PNPG 0.2-1.0 mM, nonlinear regression; for Inhibition type: from intersection point in Lineweaver–Burk plots
Protocol: To further characterise the inhibition behaviour of discovered inhibitors, multiple concentrations of compounds (0.5–12 µM) or DSL (50–100 µM) and PNPG (0.2, 0.3, 0.5, and 1.0 mM) were applied to determine the corresponding reaction rates. The inhibition type was evaluated through determining the intersection point in Lineweaver–Burk plots, and the Ki values were calculated by nonlinear regression of different inhibition types using the GraphPad Prism 6.0 (GraphPad Software, La Jolla, CA).
as §1

[3] = test system: EcGUS; details: cited from earlier work
[4] = 10 µM compound, PNPG 250 µM, EcGUS 2 µg/mL, PBS pH 7.4, 37 °C, 30 min, read-out: Inhibition rate at 10 μM
[5] = PNPG 250 µM, EcGUS 2 µg/mL, PBS pH 7.4, 37 °C, 30 min
[6] = pH 7.4, read-out: Inhibition rate at 10 μM

In the case of `N#C/N=C1\SCCN1C(=O)c1ccc(-c2ccccc2Cl)o1` [Compound 1], the inhibition at 10 µM [1, 4] is reported as 77.2 ± 0.6%, the IC50 [1, 5] is reported as 5.7 ± 0.6 µM and the Ki [2] is reported as < 3.5 µM and 3.5 µM. The Inhibition type [2] was “competitive EcGUS inhibitors” and the melting point was 101 to 102 °C.
For `N#C/N=C1\SCCN1C(=O)c1ccc(-c2cccc(Cl)c2)o1` [Compound 2], the inhibition at 10 µM [1, 4] was 95.2 ± 0.3%, the IC50 [1, 5] was 1.2 ± 0.2 µM and the Ki [2] was < 3.5 µM and 0.7 µM. For the same compound, the Inhibition type [2] was “competitive EcGUS inhibitors” and the melting point was 166 to 167 °C.
In the case of `N#C/N=C1\SCCN1C(=O)c1ccc(-c2ccc(Cl)cc2)o1` [Compound 3], the inhibition at 10 µM [1, 4] is reported as 80.2 ± 1.8%, the IC50 [1, 5] is reported as 4.7 ± 0.6 µM and the Ki [2] is reported as < 3.5 µM and 2 µM. The Inhibition type [2] was “competitive EcGUS inhibitors” and the melting point was 149 to 150 °C.
For `N#C/N=C1\SCCN1C(=O)c1ccc(-c2ccccc2F)o1` [Compound 4], the inhibition at 10 µM [1, 4] was 61.6 ± 0.6%, the IC50 [1, 5] was 11.9 ± 1.5 µM and the melting point was 137 to 138 °C.
With `N#C/N=C1\SCCN1C(=O)c1ccc(-c2ccc(F)cc2)o1` [Compound 5] the inhibition at 10 µM [1, 4] was 66.5 ± 1.2%, the IC50 [1, 5] was 7.3 ± 0.7 µM and the melting point was 129 to 130 °C.
With `N#C/N=C1\SCCN1C(=O)c1ccc(-c2ccc(F)cc2F)o1` [Compound 6] the inhibition at 10 µM [1, 4] was 43.9 ± 0.7%, the IC50 [1, 5] was 23.1 ± 1.5 µM and the melting point was 140 to 141 °C.
In the case of `N#C/N=C1\SCCN1C(=O)c1ccc(-c2c(F)cccc2F)o1` [Compound 7], the inhibition at 10 µM [1, 4] is reported as 64.1 ± 1.2%, the IC50 [1, 5] is reported as 9.3 ± 1.1 µM and the melting point is reported as 136 to 137 °C.
For `N#C/N=C1\SCCN1C(=O)c1ccc(-c2ccccc2[N+](=O)[O-])o1` [Compound 8], the IC50 [1, 5] was less than 10 µM, the inhibition at 10 µM [1, 6] was 31.4 ± 1.8% and the melting point was 135 to 136 °C.
`N#C/N=C1\SCCN1C(=O)c1ccc(-c2ccc([N+](=O)[O-])cc2)o1` [Compound 9] gave an inhibition at 10 µM [1, 4] of 40.3 ± 3.2%, an IC50 [1, 5] of 22.2 ± 2.5 µM and a melting point greater than 290 °C.
Work on `N#C/N=C1\SCCN1C(=O)c1ccc(-c2ccc(Br)cc2)o1` [Compound 10] yielded an inhibition at 10 µM [1, 4] of 68.7 ± 1.8%, an IC50 [1, 5] of 10.8 ± 0.2 µM and a melting point of 169 to 170 °C.
With `Cc1ccc(-c2ccc(C(=O)N3CCS/C3=N\C#N)o2)cc1` [Compound 11] the inhibition at 10 µM [1, 4] was 33.5 ± 2.5%, the IC50 [1, 5] was 22.3 ± 2.6 µM and the melting point was 151 to 152 °C.
Work on `COc1ccc(-c2ccc(C(=O)N3CCS/C3=N\C#N)o2)cc1` [Compound 12] yielded an inhibition at 10 µM [1, 4] of 49.6 ± 0.6%, an IC50 [1, 5] of 18.5 ± 2.1 µM and a melting point of 151 to 152 °C.
`N#C/N=C1\SCCN1C(=O)c1ccc(-c2ccccc2)o1` [Compound 13] showed an inhibition at 10 µM [1, 4] of 61.8 ± 1.3%, an IC50 [1, 5] of 10.7 ± 0.5 µM and a melting point of 143 to 144 °C.
With `O=C(O)[C@@H](O)[C@H]1OC(=O)[C@H](O)[C@H]1O` [D-Saccharic acid 1,4-lactone, D-saccharic acid-1,4-lactone, reference compound] the IC50 [1, 5] was 67.3 ± 0.6 µM, the inhibition at 10 µM [1, 6] was 11.6 ± 0.6% and the Ki [2] was 30.9 ± 2.2 µM. The Inhibition type [2] was “mixed inhibitors”.
In the case of `O=c1cc(-c2ccc(O)cc2)oc2cc(O)c(O)c(O)c12` [Scutellarein], the “Inhibition type against EcGUS” value [3] is listed as “potent competitive inhibitors”.
For `Clc1ccc2c(c1)C(N1CCNCC1)=Nc1ccccc1O2` [amoxapine], the “Inhibition type against EcGUS” value [3] is listed as “uncompetitive inhibition”.
In the case of `CCOC(=O)/C=C/c1ccc(O)c(O)c1` [caffeic acid ethyl ester], the “Inhibition type against EcGUS” value [3] is listed as “potent competitive inhibitors”.
In the case of `CC(C)=CCc1c(-c2ccc(O)cc2O)oc2c([C@H]3C=C(C)C[C@@H](c4ccc(O)cc4O)[C@@H]3C(=O)c3ccc(O)cc3O)c(O)cc(O)c2c1=O` [kuwanon G], the “Inhibition type against EcGUS” value [3] is given as “mixed-type inhibition”.
For `CC(C)=CC[C@]12Oc3cc(O)c([C@H]4C=C(C)C[C@H](c5ccc(O)cc5O)[C@H]4C(=O)c4ccc(O)cc4O)c(O)c3C(=O)[C@@]1(O)Oc1cc(O)ccc12` [sanggenon C], the “Inhibition type against EcGUS” value [3] is given as “mixed-type inhibition”.
